# PMC5642509, “A small-molecule inhibitor targeting the AURKC–IκBα interaction decreases transformed growth of MDA-MB-231 breast cancer cells” (Oncotarget, 2017)
# T1: Aurora C (AURKC) (Homo sapiens, UniProt Q9UQB9)
# T1 construct: recombinant active AURKC
# T1 sequence (Q9UQB9 1-309): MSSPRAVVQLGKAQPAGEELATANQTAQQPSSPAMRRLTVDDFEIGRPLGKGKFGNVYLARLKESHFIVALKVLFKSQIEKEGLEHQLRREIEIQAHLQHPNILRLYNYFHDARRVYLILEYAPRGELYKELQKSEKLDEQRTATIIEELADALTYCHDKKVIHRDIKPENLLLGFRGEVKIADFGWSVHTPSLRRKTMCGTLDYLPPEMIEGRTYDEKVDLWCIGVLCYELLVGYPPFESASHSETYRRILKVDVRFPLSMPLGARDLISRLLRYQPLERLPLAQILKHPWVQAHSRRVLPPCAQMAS
# T2: pBIND-AURKC (human, UniProt Q9UQB9 1-309)
# T2 construct: Aurora C kinase (AURKC); also called pM-BD-pAURKC; source: mammalian two-hybrid fusion, transfected cells
# T2 sequence (looked up): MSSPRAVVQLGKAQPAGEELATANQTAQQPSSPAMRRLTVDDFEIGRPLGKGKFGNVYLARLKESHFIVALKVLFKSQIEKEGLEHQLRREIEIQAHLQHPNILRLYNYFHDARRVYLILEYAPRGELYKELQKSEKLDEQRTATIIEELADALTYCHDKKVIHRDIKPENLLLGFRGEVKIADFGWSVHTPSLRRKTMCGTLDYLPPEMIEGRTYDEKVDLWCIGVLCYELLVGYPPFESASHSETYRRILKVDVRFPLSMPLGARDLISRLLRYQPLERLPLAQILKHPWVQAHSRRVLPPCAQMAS
# Key:
# Aurora C (AURKC) = biological target: T1, Aurora C (AURKC); experiment: ATP-competition kinase assay, active AURKC and purified IκBα, pS32 immunoblot (GSK1070916 […], various ATP); type: biochemical
# pBIND-AURKC = biological target: T2, pBIND-AURKC; experiment: two-hybrid; mammalian two-hybrid: pBIND-AURKC, pACT-IκBα and pG5-luciferase transfected in equal amounts; luciferase read-out normalised against the control; conditions: partners not purified
Molecule,"ATP-competition kinase assay, active AURKC and purified IκBα, pS32 immunoblot (G) (Aurora C (AURKC))",fold luciferase activity over the Bind-AURKC vector (pBIND-AURKC)
CCn1cc(-c2ccnc3[nH]c(-c4cccc(CN(C)C)c4)cc23)c(-c2ccc(NC(=O)N(C)C)cc2)n1 [GSK1070916],the inhibitory activity of GSK1070916 was inversely proportional to the concentration of ATP (Figure 6E and 6F),
"pACT-IκBα (natural protein, human, UniProt P25963 1-317, looked up, IκBα; also called pVP-IκBα; source: mammalian two-hybrid fusion, transfected cells) MFQAAERPQEWAMEGPRDGLKKERLLDDRHDSGLDSMKDEEYEQMVKELQEIRLEPQEVPRGSEPWKQQLTEDGDSFLHLAIIHEEKALTMEVIRQVKGDLAFLNFQNNLQQTPLHLAVITNQPEIAEALLGAGCDPELRDFRGNTPLHLACEQGCLASVGVLTQSCTTPHLHSILKATNYNGHTCLHLASIHGYLGIVELLVSLGADVNAQEPCNGRTALHLAVDLQNPDLVSLLLKCGADVNRVTYQGYSPYQLTWGRPSTRIQQQLGQLTLENLQMLPESEDEESYDTESEFTEFTEDELPYDDCVFGGQRLTL",,~2.7 fold
